Reference: patent US20090029995A1, “HETERO BIARYL DERIVATIVES AS MATRIX METALLOPROTEINASE INHIBITORS” (WARNER-LAMBERT COMPANY, priority 2002, published 2009)
Where a name gives a salt, the structure may show the parent alone.

Biological target: T1, MMP-13 catalytic domain (Homo sapiens, UniProt P45452)
T1 construct: use the catalytic domain of the MMP-13 enzyme, namely matrix metalloproteinase-13 catalytic domain (“MMP-13CD”)
Experiment: MMP-13 catalytic domain inhibition (thiopeptolide substrate hydrolysis)
Format: biochemical
Details: read-out: MMP-13CD IC50
Excerpt: The assays measure the amount by which a test compound reduces the hydrolysis of a thiopeptolide substrate catalyzed by a matrix metalloproteinase enzyme. […] One such assay is described below in Biological Method 1.
Some of the particular methods described below use the catalytic domain of the MMP-13 enzyme, namely matrix metalloproteinase-13 catalytic domain (“MMP-13CD”), rather than the corresponding full-length enzyme, MMP-13.
Thiopeptolide substrates show virtually no decomposition or hydrolysis at or below neutral pH in the absence of a matrix metalloproteinase enzyme. A typical thiopeptolide substrate commonly utilized for assays is Ac-Pro-Leu-Gly-thioester-Leu-Leu-Gly-OEt. […] Assays are carried out with and without matrix metalloproteinase inhibitor compounds, and the amount of hydrolysis is compared for a determination of inhibitory activity of the test compounds.

| IC50 [nM] | Molecule |
| --- | --- |
| 18 | COc1ccc(-c2cnc(-c3cccc(-c4nnn(Cc5ccc(C(=O)O)cc5)n4)c3)o2)cc1 [Example A7, 4-(5-{3-[5-(4-Methoxy-phenyl)-oxazol-2-yl]-phenyl}-tetrazol-2-ylmethyl)-benzoic acid] |
| 1300 | CCCC(=O)NCc1ccc(Cn2nnc(-c3cccc(C#CCc4ccccc4)c3)n2)cc1 [Example D7, N-(4-{5-[3-(3-Phenyl-prop-1-ynyl)-phenyl]-tetrazol-2-ylmethyl}-benzyl)-butyramide] |
| 200 | COc1ccc(-c2cnc(-c3cccc(-c4nnc(Cc5ccc(C(=O)O)cc5)o4)c3)o2)cc1 [Example B2, 4-(5-{3-[5-(4-Methoxy-phenyl)-oxazol-2-yl]-phenyl}-[1,3,4]oxadiazol-2-ylmethyl)-benzoic acid] |
| > 3000 | O=C(O)c1ccc(Cn2nnc(-c3cccc(-c4nnc(-c5ccccc5)o4)c3)n2)cc1 [Example A2, 4-{5-[3-(5-Phenyl-[1,3,4]oxadiazol-2-yl)-phenyl]-tetrazol-2-ylmethyl}-benzoic acid] |
| 1000 | COc1ccc(-c2cnc(-c3cccc(-c4nnn(Cc5ccc(C(=O)OC(C)(C)C)cc5)n4)c3)o2)cc1 [Example A6, 4-(5-{3-[5-(4-Methoxy-phenyl)-oxazol-2-yl]-phenyl}-tetrazol-2-ylmethyl)-benzoic acid tertiary butyl ester] |
| 330 | CC(=O)NCc1ccc(Cn2nnc(-c3cccc(C#CCc4ccccc4)c3)n2)cc1 [Example D8, N-(4-{5-[3-(3-Phenyl-prop-1-ynyl)-phenyl]-tetrazol-2-ylmethyl}-benzyl)-acetamide] |
| 1800 | Fc1ccc(Cn2nnc(-c3cccc(-c4ncc(-c5ccccc5)o4)c3)n2)cc1F [Example A5, 2-(3,4-Difluoro-benzyl)-5-[3-(5-phenyl-oxazol-2-yl)-phenyl]-2H-tetrazole] |
| 49000 | COc1ccc(-c2cnc(-c3cccc(-c4nnc(-c5ccc(C(=O)O)cc5)o4)c3)o2)cc1 [Example B1, 4-(5-{3-[5-(4-Methoxy-phenyl)-oxazol-2-yl]-phenyl}-[1,3,4]oxadiazol-2-yl)-benzoic acid] |
| 86 | O=C(O)c1ccc(Cn2nnc(-c3cccc(C#CCOc4ccc(F)cc4)c3)n2)cc1 [Example G4, 4-(5-{3-[3-(4-Fluoro-phenoxy)-prop-1-ynyl]-phenyl}-tetrazol-2-ylmethyl)-benzoic acid] |
| 160 | O=C(O)c1ccc(Cn2nnc(-c3cncc(C#CCn4ccnc4)c3)n2)cc1 [Example H3, 4-{5-[5-(3-Imidazol-1-yl-prop-1-ynyl)-pyridin-3-yl]-tetrazol-2-ylmethyl}-benzoic acid] |
| 6.8 | O=C(O)c1ccc(Cn2nnc(-c3cccc(C#CCn4ccnc4)c3)n2)cc1 [Example G5, 4-{5-[3-(3-Imidazol-1-yl-prop-1-ynyl)-phenyl]-tetrazol-2-ylmethyl}-benzoic acid] |
| 29 | O=C(O)c1ccc(Cn2nnc(-c3cccc(C#CCn4cnc(-c5ccccc5)c4)c3)n2)cc1 [Example G7, 4-(5-{3-[3-(4-Phenyl-imidazol-1-yl)-prop-1-ynyl]-phenyl}-tetrazol-2-ylmethyl)-benzoic acid] |
| 14 | COc1ccc(-c2cnc(-c3cccc(-c4nnc(Cc5ccc(C(=O)O)cc5)s4)c3)o2)cc1 [Example B3, 4-(5-{3-[5-(4-Methoxy-phenyl)-oxazol-2-yl]-phenyl}-[1,3,4]thiadiazol-2-ylmethyl)-benzoic acid] |
| 2800 | NCc1ccc(Cn2nnc(-c3cccc(C#CCc4ccccc4)c3)n2)cc1 [Example D6, 4-{5-[3-(3-Phenyl-prop-1-ynyl)-phenyl]-tetrazol-2-ylmethyl}-benzylamine] |
| 3.6 | COc1ccc(-c2cnc(-c3cccc(-c4nnn(Cc5ccc(C(=O)O)cc5)n4)c3)s2)cc1 [Example A9, 4-(5-{3-[5-(4-Methoxy-phenyl)-thiazol-2-yl]-phenyl}-tetrazol-2-ylmethyl)-benzoic acid] |
| 8.3 | O=C(O)c1ccc(Cn2nnc(-c3cncc(C#CCc4ccc(F)cc4)c3)n2)cc1 [Example H2, 4-(5-{5-[3-(4-Fluoro-phenyl)-prop-1-ynyl]-pyridin-3-yl}-tetrazol-2-ylmethyl)-benzoic acid] |
| 3400 | O=C(O)c1ccc(-c2nnc(-c3cccc(C#CCc4ccccc4)c3)o2)cc1 [Example C1, 4-{5-[3-(3-Phenyl-prop-1-ynyl)-phenyl]-[1,3,4]oxadiazol-2-yl}-benzoic acid] |
| 1300 | COc1ccc(-c2cnc(-c3cccc(-c4nnn(Cc5ccc(F)c(F)c5)n4)c3)o2)cc1 [Example A8, 2-(3,4-Difluoro-benzyl)-5-{3-[5-(4-methoxy-phenyl)-oxazol-2-yl]-phenyl}-2H-tetrazole] |
| 400 | O=C(O)c1ccc(Cn2nnc(-c3cccc(-c4ncc(-c5ccccc5)o4)c3)n2)cc1 [Example A4, 4-{5-[3-(5-Phenyl-oxazol-2-yl)-phenyl]-tetrazol-2-ylmethyl}-benzoic acid] |
| 1800 | CC(C#Cc1cccc(-c2nnn(Cc3ccc(C(=O)O)cc3)n2)c1)c1ccccc1 (centres unmarked) [Example G8, 4-{5-[3-(3-Phenyl-but-1-ynyl)-phenyl]-tetrazol-2-ylmethyl}-benzoic acid] |
| 99 | O=C(O)c1ccc(Cn2nnc(-c3cccc(C(=O)NCc4ccncc4)c3)n2)cc1 [Example F1, 4-(5-{3-[(Pyridin-4-ylmethyl)-carbamoyl]-phenyl}-tetrazol-2-ylmethyl)-benzoic acid; compound with trifluoro-acetic acid] |
| 6.4 | O=C(O)c1ccc(Cn2nnc(-c3cccc(C#CCn4ccc(=O)cc4)c3)n2)cc1 [Example G6, 4-(5-{3-[3-(4-Oxo-4H-pyridin-1-yl)-prop-1-ynyl]-phenyl}-tetrazol-2-ylmethyl)-benzoic acid] |
| 1400 | CC(C)(C)OC(=O)c1ccc(Cn2nnc(-c3cccc(-c4ncc(-c5ccccc5)o4)c3)n2)cc1 [Example A3, 4-{5-[3-(5-Phenyl-oxazol-2-yl)-phenyl]-tetrazol-2-ylmethyl}-benzoic acid tertiary butyl ester] |
| 280 | O=C(O)c1ccc(Cn2nnc(-c3cccc(C(=O)NCc4cccnc4)c3)n2)cc1 [Example F2, 4-(5-{3-[(Pyridin-3-ylmethyl)-carbamoyl]-phenyl}-tetrazol-2-ylmethyl)-benzoic acid; compound with trifluoro-acetic acid] |
| 440 | O=C(O)c1ccc(Cn2nnc(-c3cccc(-c4nnc(Cc5ccccc5)o4)c3)n2)cc1 [Example A1, 4-{5-[3-(5-Benzyl-[1,3,4]oxadiazol-2-yl)-phenyl]-tetrazol-2-ylmethyl}-benzoic acid] |

| Molecule | IC50 [nM] |
| --- | --- |
| [4-(5-{3-[3-(4-Fluoro-phenyl)-prop-1-ynyl]-phenyl}-tetrazol-2-ylmethyl)-phenyl]-phosphonic acid [Example D2] | 13 |

Test system: not given
Experiment: not given
Details: not given

| melting point | Molecule |
| --- | --- |
| 161 to 162 °C | COc1ccc(Cn2nnc(-c3cccc(C(=O)NCc4ccc(CN5CCOCC5)cc4)c3)n2)cc1 [Example 12, 3-[2-(4-Methoxy-benzyl)-2H-tetrazol-5-yl]-N-(4-morpholin-4-ylmethyl-benzyl)-benzamide] |
| 150 to 151 °C | COc1ccc(Cn2nnc(-c3cccc(C(=O)NCc4ccc(F)c(Cl)c4)c3)n2)cc1 [Example 13, N-(3-Chloro-4-fluoro-benzyl)-3-[2-(4-methoxy-benzyl)-2H-tetrazol-5-yl]-benzamide] |
| 100 to 101 °C | C/C=C/Cn1nnc(-c2cccc(C(=O)NCc3ccccc3)c2)n1 [Example 27, N-Benzyl-3-(2-but-2-enyl-2H-tetrazol-5-yl)-benzamide] |
| 217 to 219 °C | O=C(O)c1ccc(CNC(=O)c2cccc(-c3nnn(Cc4cccc(F)c4)n3)c2)cc1 [Example 8, 4-({3-[2-(3-Fluoro-benzyl)-2H-tetrazol-5-yl]-benzoylamino}-methyl)-benzoic acid] |
| 169 to 170 °C | COc1ccc(Cn2nnc(-c3cccc(C(=O)NCc4ccccc4)c3)n2)cc1 [Example 17, N-Benzyl-3-[2-(4-methoxy-benzyl)-2H-tetrazol-5-yl]-benzamide] |
| 162 to 163 °C | COc1ccc(Cn2nnc(-c3cccc(C(=O)NCc4cccc(C(F)(F)F)c4)c3)n2)cc1 [Example 14, 3-[2-(4-Methoxy-benzyl)-2H-tetrazol-5-yl]-N-(3-trifluoromethyl-benzyl)-benzamide] |
| 158 to 160 °C | COC(=O)c1ccc(CNC(=O)c2cccc(-c3nnn(Cc4nccs4)n3)c2)cc1 [Example 9] |
| 177 to 178 °C | COC(=O)c1ccc(CNC(=O)c2cc(-c3nnn(Cc4ccc(OC)cc4)n3)ccc2OC)cc1 [Example 35] |
| 191 to 192 °C | N#Cc1ccc(Cn2nnc(-c3cccc(C(=O)NCc4ccccc4)c3)n2)cc1 [Example 29, N-Benzyl-3-[2-(4-cyano-benzyl)-2H-tetrazol-5-yl]-benzamide] |
| 147 to 150 °C | CS(=O)(=O)c1ccc(Cn2nnc(-c3ccnc(C(=O)NC4CCc5ccccc54)c3)n2)cc1 (centres unmarked) [Example F9, 4-[2-(4-Methanesulfonyl-benzyl)-2H-tetrazol-5-yl]-pyridine-2-carboxylic acid indan-1-ylamide] |
| 228 °C (dec.) | COc1cc(CNC(=O)c2cccc(-c3nnn(Cc4ccc(C(=O)O)cc4)n3)c2)ccn1 (as salt: TFA) [Example 33, 4-(5-{3-[(2-Methoxy-pyridin-4-ylmethyl)-carbamoyl]-phenyl}-tetrazol-2-ylmethyl)-benzoic acid] |
| 188 to 190 °C | COc1ccc(Cn2nnc(-c3ccc(OC)c(C(=O)NCc4ccc(C(F)(F)F)cc4)c3)n2)cc1 [Example 37, 2-Methoxy-5-[2-(4-methoxy-benzyl)-2H-tetrazol-5-yl]-N-(4-trifluoromethyl-benzyl)-benzamide] |
